*1 amine or outer side, *2 acyl side, *3 side chain or, on linkers, in order; H or OH if unused. Where a SMILES comes first, the peptide text is derived from it. Bridges are numbered along the chain shown (N, C = ends). [ ]: non-standard residue; d: D form. X6 = O=C(NCCOCCOCCNC(=O)c1ccc2c(c1)C(=O)OC21c2ccc(O)cc2Oc2cc(O)ccc21)OCC1C2CCc3c([*:1])nnc([*:2])c3CCC21; X5 = O=C(O)CCOCCOCCOCCOCCNC(=O)OCC1C2CCc3c([*:1])nnc([*:2])c3CCC21; X4 = C#CCCCCN1C(=O)C([*:1])=C([*:2])C1=O; X3 = NC(=O)/C(=C(\C(=O)O)[*:2])[*:1]; Nle = CCCC[C@H](N)C(=O)O; X7 = C(C[*:1])C[*:2]
What was measured:
[1] = molecular target: T1, Melanocyte-stimulating hormone receptor (Homo sapiens, UniProt Q01726); experiment: Displacement of [125I]-NDP-alpha-MSH from human MC1R expressed in HEK2936E cell membrane measured after 16 to 23 hrs by 1450 microbeta trilux scintillation proximity assay; assay type: cell membranes; conditions: for pKi: hek2936e
T1 sequence (Q01726 whole entry): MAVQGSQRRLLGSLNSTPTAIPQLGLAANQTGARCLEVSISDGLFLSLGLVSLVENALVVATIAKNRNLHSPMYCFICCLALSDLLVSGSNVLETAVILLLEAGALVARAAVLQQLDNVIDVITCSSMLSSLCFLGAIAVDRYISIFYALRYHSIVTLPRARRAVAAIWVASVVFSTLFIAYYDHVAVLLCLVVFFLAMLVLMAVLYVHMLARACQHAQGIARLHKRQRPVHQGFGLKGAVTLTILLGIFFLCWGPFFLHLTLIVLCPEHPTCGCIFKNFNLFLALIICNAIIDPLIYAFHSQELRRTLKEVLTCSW

[2] = molecular target: T2, Melanocortin receptor 3 (Homo sapiens, UniProt P41968); experiment: Displacement of [125I]-NDP-alpha-MSH from human MC3R expressed in HEK2936E cell membrane measured after 16 to 23 hrs by 1450 microbeta trilux scintillation proximity assay; assay type: cell membranes; conditions: for pKi: hek2936e
T2 sequence (P41968 whole entry): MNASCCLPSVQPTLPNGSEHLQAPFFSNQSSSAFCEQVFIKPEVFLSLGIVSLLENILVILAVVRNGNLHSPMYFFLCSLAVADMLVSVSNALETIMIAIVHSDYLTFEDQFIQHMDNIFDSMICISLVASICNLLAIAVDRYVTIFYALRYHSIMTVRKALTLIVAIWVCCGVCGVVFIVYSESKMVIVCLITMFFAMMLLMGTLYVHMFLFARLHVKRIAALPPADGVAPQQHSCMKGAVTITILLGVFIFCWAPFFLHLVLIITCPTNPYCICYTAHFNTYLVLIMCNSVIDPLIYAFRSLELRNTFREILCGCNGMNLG

[3] = molecular target: T1, Melanocyte-stimulating hormone receptor; experiment: Agonist activity at human MC1R expressed in HEK2936E cells assessed as cAMP production in presence of IBMX by time resolved fluorescence assay; assay type: functional, cell-based; conditions: for pEC50: hek2936e
[4] = molecular target: T2, Melanocortin receptor 3; experiment: Agonist activity at human MC3R expressed in HEK2936E cells assessed as cAMP production in presence of IBMX by time resolved fluorescence assay; assay type: functional, cell-based; conditions: for pEC50: hek2936e
[5] = molecular target: Melanocortin receptor 5 (Homo sapiens, UniProt P33032); experiment: Agonist activity at human MC5R expressed in HEK2936E cells assessed as cAMP production in presence of IBMX by time resolved fluorescence assay; assay type: functional, cell-based
Melanocortin receptor 5, sequence (P33032 whole entry): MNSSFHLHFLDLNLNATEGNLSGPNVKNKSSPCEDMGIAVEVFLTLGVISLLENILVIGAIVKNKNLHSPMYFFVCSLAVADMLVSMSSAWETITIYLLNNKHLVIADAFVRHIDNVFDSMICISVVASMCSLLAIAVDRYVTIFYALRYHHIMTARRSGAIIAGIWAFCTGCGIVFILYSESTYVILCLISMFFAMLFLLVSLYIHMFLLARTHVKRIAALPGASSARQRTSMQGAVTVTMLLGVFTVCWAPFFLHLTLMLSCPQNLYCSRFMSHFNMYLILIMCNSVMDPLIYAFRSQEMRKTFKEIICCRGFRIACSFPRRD

[6] = molecular target: T3, Melanocortin receptor 4 (Homo sapiens, UniProt P32245); experiment: Displacement of [125I]-NDP-alpha-MSH from human MC4R expressed in HEK2936E cell membrane measured after 16 to 23 hrs by 1450 microbeta trilux scintillation proximity assay; assay type: cell membranes; conditions: for pKi: hek2936e
T3 sequence (P32245 whole entry): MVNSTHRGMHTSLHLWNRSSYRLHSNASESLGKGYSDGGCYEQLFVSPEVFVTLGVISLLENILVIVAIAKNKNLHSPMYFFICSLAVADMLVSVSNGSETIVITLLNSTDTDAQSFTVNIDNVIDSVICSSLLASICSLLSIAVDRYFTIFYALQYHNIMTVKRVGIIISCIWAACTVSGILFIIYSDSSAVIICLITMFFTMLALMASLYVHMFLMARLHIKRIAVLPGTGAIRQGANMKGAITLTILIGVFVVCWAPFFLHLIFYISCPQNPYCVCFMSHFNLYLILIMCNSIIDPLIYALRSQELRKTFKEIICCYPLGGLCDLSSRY

[7] = molecular target: T3, Melanocortin receptor 4; experiment: Agonist activity at human MC4R expressed in HEK2936E cells assessed as cAMP production in presence of IBMX by time resolved fluorescence assay; assay type: functional, cell-based; conditions: for pEC50: hek2936e
[8] = species on record: Homo sapiens; experiment: Selectivity ratio of Ki for human MC3R to Ki for human MC1R
[9] = species on record: Homo sapiens; experiment: Selectivity ratio of Ki for human MC4R to Ki for human MC1R
[10] = species on record: Homo sapiens; experiment: Selectivity ratio of EC50 for human MC3R to EC50 for human MC1R
[11] = species on record: Homo sapiens; experiment: Selectivity ratio of EC50 for human MC4R to EC50 for human MC1R

SMILES: CC[C@H](C)[C@@H]1NC(=O)[C@@H]2CCCN2C(=O)[C@H](Cc2c[nH]c3ccccc23)NC(=O)[C@H](CCCNC(=N)N)N(C)C(=O)[C@H](Cc2ccccc2)NC(=O)[C@H](Cc2cnc[nH]2)NC(=O)[C@H]([C@@H](C)O)NC(=O)[C@H](NC(C)=O)CCSCc2ccc(cc2)CSCC[C@H](C(N)=O)NC1=O
- pKi [1]: 7
- pKi [2]: 4.89
- pEC50 [3]: 8.4
- pEC50 [4]: 6.3
- pEC50 [5]: 4.71

SMILES: CC[C@H](C)[C@@H]1NC(=O)[C@@H]2CCCN2C(=O)[C@H](Cc2c[nH]c3ccccc23)NC(=O)[C@H](CCCNC(=N)N)N(C)C(=O)[C@H](Cc2ccccc2)NC(=O)[C@H](Cc2cnc[nH]2)NC(=O)[C@H]([C@@H](C)O)NC(=O)[C@H](NC(C)=O)CCSSCC[C@H](C(N)=O)NC1=O
- pKi [1]: 7.24
- pKi [2]: 5.2
- pKi [6]: 6.53
- pEC50 [3]: 8.32
- pEC50 [4]: 6.72
- pEC50 [7]: 7.32
- pEC50 [5]: 5.38
- Ratio Ki [8]: 110
- Ratio Ki [9]: 5
- Ratio EC50 [10]: 40
- Ratio EC50 [11]: 10

SMILES: CC[C@H](C)[C@@H]1NC(=O)[C@@H]2CCCN2C(=O)[C@H](Cc2c[nH]c3ccccc23)NC(=O)[C@H](CCCNC(=N)N)N(C)C(=O)[C@H](Cc2ccccc2)NC(=O)[C@H](Cc2cnc[nH]2)NC(=O)[C@H]([C@@H](C)O)NC(=O)[C@H](NC(C)=O)CCSCc2ccccc2CSCC[C@H](C(N)=O)NC1=O
- pKi [1]: 7.16
- pKi [2]: 4.88
- pKi [6]: 5.93
- pEC50 [3]: 8.67
- pEC50 [4]: 6.34
- pEC50 [7]: 6.74
- pEC50 [5]: 4.82
- Ratio Ki [8]: 191
- Ratio Ki [9]: 17
- Ratio EC50 [10]: 214
- Ratio EC50 [11]: 85

SMILES: CC[C@H](C)[C@@H]1NC(=O)[C@@H]2CCCN2C(=O)[C@H](Cc2c[nH]c3ccccc23)NC(=O)[C@H](CCCNC(=N)N)N(C)C(=O)[C@H](Cc2ccccc2)NC(=O)[C@H](Cc2cnc[nH]2)NC(=O)[C@H]([C@@H](C)O)NC(=O)[C@H](NC(C)=O)CCSCc2cccc(c2)CSCC[C@H](C(N)=O)NC1=O
- pKi [1]: 7.31
- pKi [2]: 5.08
- pKi [6]: 6.34
- pEC50 [3]: 8.79
- pEC50 [4]: 6.42
- pEC50 [7]: 6.72
- pEC50 [5]: 4.78
- Ratio Ki [8]: 170
- Ratio Ki [9]: 9
- Ratio EC50 [10]: 219
- Ratio EC50 [11]: 110

SMILES: CCCC[C@@H]1NC(=O)[C@@H]2CS/C(C(=O)O)=C(/C(N)=O)SC[C@H](NC(=O)[C@H](CCCNC(=N)N)NC(=O)[C@H](CC(=O)O)NC(=O)[C@H](Cc3c[nH]c4ccccc34)NC(=O)[C@H](CCCNC(=N)N)NC(=O)[C@H](Cc3ccccc3)NC(=O)[C@H](Cc3cnc[nH]3)NC(=O)CNC1=O)C(=O)N[C@@H](Cc1cnc[nH]1)C(=O)N[C@@H](Cc1ccccc1)C(=O)N[C@@H](CCCNC(=N)N)C(=O)N[C@@H](Cc1c[nH]c3ccccc13)C(=O)N[C@@H](CCCNC(=N)N)C(=O)N2 (cyclo(CHFRWRC[Nle]GHFRWDR); linker 1-7 via X3)
- Ki [1]: 9.77 nM
- Ki [2]: 295 nM
- Ki [6]: 302 nM
- EC50 ([3]; read-out: pEC50 (converted)): 0.479 nM
- EC50 [4]: 2.57 nM
- EC50 [7]: 11.2 nM
- Ratio Ki [8]: 30
- Ratio Ki [9]: 31
- Ratio EC50 [10]: 5
- Ratio EC50 [11]: 23

SMILES: C#CCCCCN1C(=O)C2=C(SC[C@@H]3NC(=O)[C@H](CCCNC(=N)N)NC(=O)[C@H](CC(=O)O)NC(=O)[C@H](Cc4c[nH]c5ccccc45)NC(=O)[C@H](CCCNC(=N)N)NC(=O)[C@H](Cc4ccccc4)NC(=O)[C@H](Cc4cnc[nH]4)NC(=O)CNC(=O)[C@H](CCCC)NC(=O)[C@H](CS2)NC(=O)[C@H](CCCNC(=N)N)NC(=O)[C@H](Cc2c[nH]c4ccccc24)NC(=O)[C@H](CCCNC(=N)N)NC(=O)[C@H](Cc2ccccc2)NC(=O)[C@H](Cc2cnc[nH]2)NC3=O)C1=O (cyclo(CHFRWRC[Nle]GHFRWDR); linker 1-7 via X4)
- Ki [1]: 1.78 nM
- Ki [2]: 16.6 nM
- Ki [6]: 61.7 nM
- EC50 ([3]; read-out: pEC50 (converted)): 0.0813 nM
- EC50 [4]: 0.158 nM
- EC50 [7]: 2.19 nM
- Ratio Ki [8]: 9
- Ratio Ki [9]: 35
- Ratio EC50 [10]: 2
- Ratio EC50 [11]: 27

SMILES: CCCC[C@@H]1NC(=O)[C@@H]2CSc3nnc(c4c3CCC3C(CC4)C3COC(=O)NCCOCCOCCOCCOCCC(=O)O)SC[C@H](NC(=O)[C@H](CCCNC(=N)N)NC(=O)[C@H](CC(=O)O)NC(=O)[C@H](Cc3c[nH]c4ccccc34)NC(=O)[C@H](CCCNC(=N)N)NC(=O)[C@H](Cc3ccccc3)NC(=O)[C@H](Cc3cnc[nH]3)NC(=O)CNC1=O)C(=O)N[C@@H](Cc1cnc[nH]1)C(=O)N[C@@H](Cc1ccccc1)C(=O)N[C@@H](CCCNC(=N)N)C(=O)N[C@@H](Cc1c[nH]c3ccccc13)C(=O)N[C@@H](CCCNC(=N)N)C(=O)N2 (some centres undefined) (cyclo(CHFRWRC[Nle]GHFRWDR); linker 1-7 via X5)
- Ki [1]: 0.631 nM
- Ki [2]: 35.5 nM
- Ki [6]: 166 nM
- EC50 ([3]; read-out: pEC50 (converted)): 0.0891 nM
- EC50 [4]: 0.603 nM
- EC50 [7]: 10.5 nM
- Ratio Ki [8]: 56
- Ratio Ki [9]: 263
- Ratio EC50 [10]: 7
- Ratio EC50 [11]: 117

SMILES: CCCC[C@@H]1NC(=O)[C@@H]2CSc3nnc(c4c3CCC3C(CC4)C3COC(=O)NCCOCCOCCNC(=O)c3ccc4c(c3)C(=O)OC43c4ccc(O)cc4Oc4cc(O)ccc43)SC[C@H](NC(=O)[C@H](CCCNC(=N)N)NC(=O)[C@H](CC(=O)O)NC(=O)[C@H](Cc3c[nH]c4ccccc34)NC(=O)[C@H](CCCNC(=N)N)NC(=O)[C@H](Cc3ccccc3)NC(=O)[C@H](Cc3cnc[nH]3)NC(=O)CNC1=O)C(=O)N[C@@H](Cc1cnc[nH]1)C(=O)N[C@@H](Cc1ccccc1)C(=O)N[C@@H](CCCNC(=N)N)C(=O)N[C@@H](Cc1c[nH]c3ccccc13)C(=O)N[C@@H](CCCNC(=N)N)C(=O)N2 (some centres undefined) (cyclo(CHFRWRC[Nle]GHFRWDR); linker 1-7 via X6)
- Ki [1]: 2.82 nM
- Ki [2]: 30.9 nM
- Ki [6]: 263 nM
- EC50 ([3]; read-out: EC50): < 0.3 nM
- EC50 ([3]; read-out: pEC50 (converted)): 0.24 nM
- EC50 [4]: 0.955 nM
- EC50 [7]: 16.6 nM
- Ratio Ki [8]: 11
- Ratio Ki [9]: 93
- Ratio EC50 [10]: 4
- Ratio EC50 [11]: 69

SMILES: CCCC[C@@H]1NC(=O)[C@@H]2CSCCCSC[C@H](NC(=O)[C@H](CCCNC(=N)N)NC(=O)[C@H](CC(=O)O)NC(=O)[C@H](Cc3c[nH]c4ccccc34)NC(=O)[C@H](CCCNC(=N)N)NC(=O)[C@H](Cc3ccccc3)NC(=O)[C@H](Cc3cnc[nH]3)NC(=O)CNC1=O)C(=O)N[C@@H](Cc1cnc[nH]1)C(=O)N[C@@H](Cc1ccccc1)C(=O)N[C@@H](CCCNC(=N)N)C(=O)N[C@@H](Cc1c[nH]c3ccccc13)C(=O)N[C@@H](CCCNC(=N)N)C(=O)N2 (cyclo(CHFRWRC[Nle]GHFRWDR); linker 1-7 via X7)
- Ki [1]: 1.32 nM
- Ki [2]: 19.5 nM
- Ki [6]: 44.7 nM
- EC50 ([3]; read-out: pEC50 (converted)): 0.141 nM
- EC50 [4]: 0.302 nM
- EC50 [7]: 2.88 nM
- Ratio Ki [8]: 15
- Ratio Ki [9]: 34
- Ratio EC50 [10]: 2
- Ratio EC50 [11]: 20
